Molecular target: ATP-dependent translocase ABCB1 (Homo sapiens, UniProt P08183)
Assay: TP_TRANSPORTER: up-regulation of MDR1 mRNA in Caco-2 cells
Type: functional, cell-based

Chain of ATP-dependent translocase ABCB1 (P08183 whole entry): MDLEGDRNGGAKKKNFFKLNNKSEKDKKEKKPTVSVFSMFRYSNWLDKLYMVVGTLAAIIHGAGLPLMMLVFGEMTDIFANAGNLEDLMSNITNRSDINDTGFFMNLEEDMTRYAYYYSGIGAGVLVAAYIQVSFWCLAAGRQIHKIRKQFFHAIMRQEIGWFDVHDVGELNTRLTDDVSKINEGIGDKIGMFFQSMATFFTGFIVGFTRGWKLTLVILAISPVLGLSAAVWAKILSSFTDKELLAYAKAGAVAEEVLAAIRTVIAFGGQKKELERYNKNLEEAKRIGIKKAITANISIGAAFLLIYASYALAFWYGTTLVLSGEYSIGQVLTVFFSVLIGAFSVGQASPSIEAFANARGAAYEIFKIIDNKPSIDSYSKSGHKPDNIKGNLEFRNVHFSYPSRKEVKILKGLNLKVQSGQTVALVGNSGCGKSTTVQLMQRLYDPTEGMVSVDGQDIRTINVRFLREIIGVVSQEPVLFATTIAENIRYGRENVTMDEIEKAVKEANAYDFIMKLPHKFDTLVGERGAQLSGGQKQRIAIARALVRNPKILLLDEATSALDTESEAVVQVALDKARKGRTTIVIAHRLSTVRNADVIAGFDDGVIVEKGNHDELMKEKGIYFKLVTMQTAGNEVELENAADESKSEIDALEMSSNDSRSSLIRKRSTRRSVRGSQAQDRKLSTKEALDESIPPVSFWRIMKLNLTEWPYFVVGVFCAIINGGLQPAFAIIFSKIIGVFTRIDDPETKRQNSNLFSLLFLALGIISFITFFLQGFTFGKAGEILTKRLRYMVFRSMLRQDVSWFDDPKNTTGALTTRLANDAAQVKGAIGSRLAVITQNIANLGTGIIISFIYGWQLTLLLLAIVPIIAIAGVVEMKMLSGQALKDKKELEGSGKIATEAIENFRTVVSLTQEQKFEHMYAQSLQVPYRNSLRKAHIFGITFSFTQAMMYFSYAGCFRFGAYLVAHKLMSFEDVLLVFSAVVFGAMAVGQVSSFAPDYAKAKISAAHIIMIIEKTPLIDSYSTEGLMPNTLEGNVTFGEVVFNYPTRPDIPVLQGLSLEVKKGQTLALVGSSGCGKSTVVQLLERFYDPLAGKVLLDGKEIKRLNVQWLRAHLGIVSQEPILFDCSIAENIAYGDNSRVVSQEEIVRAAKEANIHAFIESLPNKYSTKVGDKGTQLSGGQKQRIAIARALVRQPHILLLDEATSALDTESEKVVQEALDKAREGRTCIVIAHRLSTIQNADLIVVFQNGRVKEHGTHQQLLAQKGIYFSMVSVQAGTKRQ

Activity: inducer [+]
Structure (SMILES): C[C@H]1O[C@@H](O[C@H]2[C@@H](O)C[C@H](O[C@H]3[C@@H](O)C[C@H](O[C@H]4CC[C@@]5(C)[C@H](CC[C@@H]6[C@@H]5C[C@@H](O)[C@]5(C)[C@@H](C7=CC(=O)OC7)CC[C@]65O)C4)O[C@@H]3C)O[C@@H]2C)C[C@H](O)[C@@H]1O [DIGOXIN]
